According to US9302999B2, “Substituted triazoles as herbicides” (E. I. DU PONT DE NEMOURS AND COMPANY, priority 2012, dated 2016):

How the values were obtained:
Type in all cases: in vivo
[1] = test system: woolly cupgrass (Eriochloa villosa); experiment: Test C pre-/postemergence: woolly cupgrass
Method in brief: (§1)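 Visual injury scored 0–100 (100 = complete control) against untreated controls after 13–15 greenhouse days. Surfactant-containing solvent formulations applied either to soil after sowing (loam/sand) or over 1- to 4-leaf plants, 2–18 cm tall.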

[2] = test system: bermudagrass (Cynodon dactylon); experiment: Test C pre-/postemergence: bermudagrass
Method in brief: as §1

[3] = test system: bromegrass, downy (downy bromegrass, Bromus tectorum); experiment: Test C pre-/postemergence: bromegrass, downy
Method in brief: as §1

[4] = test system: goosegrass (Eleusine indica); experiment: Test C pre-/postemergence: goosegrass
Method in brief: as §1

[5] = test system: windgrass (Apera spica-venti); experiment: Test C postemergence: windgrass
Method in brief: (§2)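 Plants at the 1- to 4-leaf stage (2 to 18 cm tall), grown in pots of peat moss/vermiculite planting medium, received postemergence applications of the formulated test chemicals. After 13 to 15 days in a greenhouse, injury was scored visually versus controls from 0 (no effect) to 100 (complete control).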

[6] = test system: cocklebur (common cocklebur, Xanthium strumarium); experiment: Test C pre-/postemergence: cocklebur; conditions: Postemergence
Method in brief: as §1

[7] = test system: surinam grass (Brachiaria decumbens); experiment: Test C pre-/postemergence: surinam grass
Method in brief: as §1

[8] = test system: canarygrass (Phalaris minor); experiment: Test C postemergence: canarygrass
Method in brief: as §2

[9] = test system: deadnettle (henbit deadnettle, Lamium amplexicaule); experiment: Test C postemergence: deadnettle
Method in brief: as §2

[10] = test system: common (oilseed) sunflower (Helianthus annuus); experiment: Test C pre-/postemergence: sunflower; conditions: Preemergence
Method in brief: as §1

[11] = Postemergence, 31 g ai/ha, scale 0 to 100 (0 no effect, 100 complete control)
[12] = Postemergence, 62 g ai/ha, scale 0 to 100 (0 no effect, 100 complete control)
[13] = Postemergence, 125 g ai/ha, scale 0 to 100, 0 no effect, 100 complete control
[14] = Postemergence, 250 g ai/ha, scale 0 to 100
[15] = Preemergence, 31 g ai/ha, scale of 0 to 100, 0 is no effect, 100 is complete control
[16] = Preemergence, 62 g ai/ha, scale of 0 to 100, 0 is no effect, 100 is complete control
[17] = Preemergence, 125 g ai/ha, scale 0 to 100, 0 no effect, 100 complete control
[18] = Preemergence, 250 g ai/ha, scale 0 to 100, 0 no effect, 100 complete control
[19] = Preemergence, 62 g ai/ha, scale 0 to 100, 0 no effect, 100 complete control
[20] = 31 g ai/ha, scale 0 to 100 (0 no effect, 100 complete control)
[21] = 62 g ai/ha, scale 0 to 100 (0 no effect, 100 complete control)
[22] = 125 g ai/ha, scale 0 to 100, 0 no effect, 100 complete control

SMILES: Cc1nn(-c2ccc(C(F)(F)F)cn2)nc1Cc1cccc(C(F)(F)F)c1 [Compound 106]
- Plant response rating, Cupgrass, Woolly [1, 11]: 5
- Plant response rating, Cupgrass, Woolly [1, 12]: 45
- Plant response rating, Cupgrass, Woolly [1, 13]: 45
- Plant response rating, Cupgrass, Woolly [1, 14]: 50
- Plant response rating, Cupgrass, Woolly [1, 15]: 5
- Plant response rating, Cupgrass, Woolly [1, 16]: 60
- Plant response rating, Cupgrass, Woolly [1, 17]: 80
- Plant response rating, Cupgrass, Woolly [1, 18]: 90
- Plant response rating, Bermudagrass [2, 11]: 40
- Plant response rating, Bermudagrass [2, 12]: 40
- Plant response rating, Bermudagrass [2, 13]: 55
- Plant response rating, Bermudagrass [2, 14]: 80
- Plant response rating, Bermudagrass [2, 15]: 100
- Plant response rating, Bermudagrass [2, 19]: 100
- Plant response rating, Bermudagrass [2, 17]: 100
- Plant response rating, Bermudagrass [2, 18]: 100
- Plant response rating, Bromegrass, Downy [3, 11]: 30
- Plant response rating, Bromegrass, Downy [3, 12]: 35
- Plant response rating, Bromegrass, Downy [3, 13]: 40
- Plant response rating, Bromegrass, Downy [3, 14]: 40
- Plant response rating, Bromegrass, Downy [3, 15]: 0
- Plant response rating, Bromegrass, Downy [3, 19]: 5
- Plant response rating, Bromegrass, Downy [3, 17]: 40
- Plant response rating, Bromegrass, Downy [3, 18]: 60
- Plant response rating, Goosegrass [4, 11]: 10
- Plant response rating, Goosegrass [4, 12]: 35
- Plant response rating, Goosegrass [4, 13]: 45
- Plant response rating, Goosegrass [4, 14]: 55
- Plant response rating, Goosegrass [4, 15]: 80
- Plant response rating, Goosegrass [4, 16]: 98
- Plant response rating, Goosegrass [4, 17]: 98
- Plant response rating, Goosegrass [4, 18]: 100
- Plant response rating, Windgrass [5, 20]: 50
- Plant response rating, Windgrass [5, 21]: 65
- Plant response rating, Windgrass [5, 22]: 80
- Plant response rating, Windgrass ([5]; 250 g ai/ha, scale 0 to 100): 85
- Plant response rating, Cocklebur [6, 20]: 35
- Plant response rating, Cocklebur [6, 21]: 35
- Plant response rating, Cocklebur [6, 22]: 40
- Plant response rating, Cocklebur ([6]; 250 g ai/ha, scale 0 to 100): 55
- Plant response rating, Surinam Grass [7, 11]: 20
- Plant response rating, Surinam Grass [7, 12]: 25
- Plant response rating, Surinam Grass [7, 13]: 35
- Plant response rating, Surinam Grass [7, 14]: 40
- Plant response rating, Surinam Grass [7, 15]: 5
- Plant response rating, Surinam Grass [7, 16]: 20
- Plant response rating, Surinam Grass [7, 17]: 80
- Plant response rating, Surinam Grass [7, 18]: 90
- Plant response rating, Canarygrass [8, 20]: 35
- Plant response rating, Canarygrass [8, 21]: 50
- Plant response rating, Canarygrass [8, 22]: 70
- Plant response rating, Canarygrass ([8]; 250 g ai/ha, scale 0 to 100): 80
- Plant response rating, Deadnettle [9, 20]: 75
- Plant response rating, Deadnettle [9, 21]: 80
- Plant response rating, Deadnettle [9, 22]: 90
- Plant response rating, Deadnettle ([9]; 250 g ai/ha, scale 0 to 100): 90
- Plant response rating, Sunflower ([10]; 62 g ai/ha, scale of 0 to 100, 0 is no effect, 100 is complete control): 0
- Plant response rating, Sunflower [10, 22]: 0
- Plant response rating, Sunflower ([10]; 250 g ai/ha, scale 0 to 100, 0 no effect, 100 complete control): 0
